Experimental data from publication PMC6478789, “A chemical toolbox for the study of bromodomains and epigenetic signaling” (Nature Communications, 2019).
Where a chain is given by its changes, count along the chain named. Read-outs that look alike come from different tables or passages of the source. One block for each compound: values may come before it.

Columns and labels:
EP300 [1] = target: EP300 (Homo sapiens, UniProt Q09472); assay: Histone acetyltransferase (HAT) activity assay; format: biochemical; details: read-out: HATs Activity (%);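 further: selectivity screen of bromodomain probe compounds against histone acetyltransferases, with enzyme activity given in percent for compounds tested at 1 and 10 µM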
Target sequence in this assay (Q09472 whole entry, species assumed): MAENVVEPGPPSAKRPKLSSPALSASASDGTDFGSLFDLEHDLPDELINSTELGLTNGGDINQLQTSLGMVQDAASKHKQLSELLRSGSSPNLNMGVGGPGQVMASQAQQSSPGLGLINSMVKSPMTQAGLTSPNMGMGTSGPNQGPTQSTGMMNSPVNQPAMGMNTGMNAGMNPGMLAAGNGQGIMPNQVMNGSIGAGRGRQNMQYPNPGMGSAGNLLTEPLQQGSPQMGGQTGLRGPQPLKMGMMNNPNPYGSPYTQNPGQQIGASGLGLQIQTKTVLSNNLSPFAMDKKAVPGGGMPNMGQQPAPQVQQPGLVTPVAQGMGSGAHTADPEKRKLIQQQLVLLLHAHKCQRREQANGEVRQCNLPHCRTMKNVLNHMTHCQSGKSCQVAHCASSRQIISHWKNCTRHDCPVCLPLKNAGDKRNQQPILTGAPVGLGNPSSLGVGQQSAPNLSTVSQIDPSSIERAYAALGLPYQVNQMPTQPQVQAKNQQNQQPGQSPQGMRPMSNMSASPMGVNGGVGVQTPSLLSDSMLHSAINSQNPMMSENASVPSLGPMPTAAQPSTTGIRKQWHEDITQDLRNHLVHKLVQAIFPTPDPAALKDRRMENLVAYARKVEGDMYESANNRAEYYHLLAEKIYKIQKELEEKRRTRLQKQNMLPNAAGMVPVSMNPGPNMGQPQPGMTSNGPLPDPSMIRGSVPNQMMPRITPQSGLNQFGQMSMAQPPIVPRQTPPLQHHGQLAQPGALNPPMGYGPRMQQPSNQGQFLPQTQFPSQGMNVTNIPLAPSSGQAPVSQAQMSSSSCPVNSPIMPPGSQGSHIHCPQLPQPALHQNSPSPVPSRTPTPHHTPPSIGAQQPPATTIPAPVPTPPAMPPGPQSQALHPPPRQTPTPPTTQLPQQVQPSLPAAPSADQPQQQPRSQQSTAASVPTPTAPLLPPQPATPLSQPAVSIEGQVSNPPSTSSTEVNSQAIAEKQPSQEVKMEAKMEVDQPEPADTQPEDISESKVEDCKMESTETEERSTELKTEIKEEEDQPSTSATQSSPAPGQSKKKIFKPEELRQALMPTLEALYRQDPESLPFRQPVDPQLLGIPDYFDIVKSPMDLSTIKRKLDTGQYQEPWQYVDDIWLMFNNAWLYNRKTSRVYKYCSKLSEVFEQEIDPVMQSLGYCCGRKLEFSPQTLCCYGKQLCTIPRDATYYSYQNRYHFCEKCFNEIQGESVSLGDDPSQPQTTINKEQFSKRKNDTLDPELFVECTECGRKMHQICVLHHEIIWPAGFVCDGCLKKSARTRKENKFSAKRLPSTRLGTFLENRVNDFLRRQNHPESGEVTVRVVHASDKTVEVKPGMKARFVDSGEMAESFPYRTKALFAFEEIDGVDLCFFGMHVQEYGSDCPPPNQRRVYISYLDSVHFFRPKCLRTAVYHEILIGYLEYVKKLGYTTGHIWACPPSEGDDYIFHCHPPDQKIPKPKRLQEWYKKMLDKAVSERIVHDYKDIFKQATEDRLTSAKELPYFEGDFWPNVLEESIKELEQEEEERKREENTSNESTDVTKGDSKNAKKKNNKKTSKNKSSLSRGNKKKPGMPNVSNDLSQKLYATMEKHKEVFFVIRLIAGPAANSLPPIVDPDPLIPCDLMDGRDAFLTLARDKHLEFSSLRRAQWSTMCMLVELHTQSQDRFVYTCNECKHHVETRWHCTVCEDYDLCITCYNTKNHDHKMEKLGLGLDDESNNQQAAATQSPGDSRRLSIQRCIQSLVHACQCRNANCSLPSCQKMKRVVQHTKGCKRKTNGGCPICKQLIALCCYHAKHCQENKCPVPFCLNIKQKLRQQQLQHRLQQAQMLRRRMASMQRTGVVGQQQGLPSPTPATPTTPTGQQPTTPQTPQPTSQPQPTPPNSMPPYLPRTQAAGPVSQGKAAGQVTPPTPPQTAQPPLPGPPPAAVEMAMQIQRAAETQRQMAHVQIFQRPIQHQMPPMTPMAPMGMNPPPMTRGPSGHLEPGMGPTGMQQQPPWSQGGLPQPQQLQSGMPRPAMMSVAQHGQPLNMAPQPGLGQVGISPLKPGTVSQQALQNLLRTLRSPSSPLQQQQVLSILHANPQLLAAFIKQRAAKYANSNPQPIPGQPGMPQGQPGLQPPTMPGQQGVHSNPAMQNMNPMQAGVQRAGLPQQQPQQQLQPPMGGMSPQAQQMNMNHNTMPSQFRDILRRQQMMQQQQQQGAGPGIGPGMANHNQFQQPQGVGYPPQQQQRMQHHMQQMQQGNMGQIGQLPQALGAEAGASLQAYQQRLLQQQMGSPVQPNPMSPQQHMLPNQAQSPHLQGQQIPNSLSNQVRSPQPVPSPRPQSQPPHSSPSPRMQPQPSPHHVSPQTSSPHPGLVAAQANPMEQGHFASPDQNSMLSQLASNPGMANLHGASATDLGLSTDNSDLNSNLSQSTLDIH

HAT1 = target: T1, HAT1 (Homo sapiens, UniProt O14929); assay: Histone acetyltransferase (HAT) activity assay; format: biochemical; details: read-out: HATs Activity (%);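 further: HAT selectivity screen of BRD probe compounds, enzyme activity in % measured with compound at 1 µM and 10 µM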
T1 sequence (O14929 1-419): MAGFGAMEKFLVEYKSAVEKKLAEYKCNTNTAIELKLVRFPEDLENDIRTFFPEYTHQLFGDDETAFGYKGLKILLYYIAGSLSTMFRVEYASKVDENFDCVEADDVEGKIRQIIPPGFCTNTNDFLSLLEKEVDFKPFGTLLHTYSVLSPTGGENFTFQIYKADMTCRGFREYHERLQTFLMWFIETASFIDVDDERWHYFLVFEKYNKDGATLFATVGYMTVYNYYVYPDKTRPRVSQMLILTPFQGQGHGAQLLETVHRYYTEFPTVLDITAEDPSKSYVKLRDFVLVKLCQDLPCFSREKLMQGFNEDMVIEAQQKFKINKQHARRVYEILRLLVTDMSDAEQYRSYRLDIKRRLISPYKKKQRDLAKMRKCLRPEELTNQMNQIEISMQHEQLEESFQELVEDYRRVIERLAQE

MYST1 = target: T2, MYST1 (Homo sapiens, UniProt Q9H7Z6); assay: Histone acetyltransferase (HAT) activity assay; format: biochemical; details: read-out: HATs Activity (%);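 further: selectivity screen across a panel of histone acetyltransferases, with compounds tested at 1 and 10 µM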
T2 sequence (Q9H7Z6 1-458): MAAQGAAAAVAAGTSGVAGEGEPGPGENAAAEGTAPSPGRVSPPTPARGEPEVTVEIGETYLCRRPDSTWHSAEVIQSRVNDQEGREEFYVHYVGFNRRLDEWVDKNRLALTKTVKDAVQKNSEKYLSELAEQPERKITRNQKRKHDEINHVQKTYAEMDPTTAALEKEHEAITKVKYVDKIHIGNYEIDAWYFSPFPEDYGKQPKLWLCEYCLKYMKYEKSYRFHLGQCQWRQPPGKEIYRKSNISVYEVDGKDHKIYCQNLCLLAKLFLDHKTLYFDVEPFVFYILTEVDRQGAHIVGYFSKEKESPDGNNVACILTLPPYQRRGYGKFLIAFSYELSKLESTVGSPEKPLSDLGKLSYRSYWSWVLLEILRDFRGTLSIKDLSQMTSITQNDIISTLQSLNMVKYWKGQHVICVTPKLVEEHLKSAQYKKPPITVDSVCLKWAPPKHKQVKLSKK

MYST3 = MYST3 (Homo sapiens, UniProt Q92794); assay: Histone acetyltransferase (HAT) activity assay; format: biochemical; details: read-out: HATs Activity (%);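 further: selectivity screen of bromodomain probe compounds across a panel of histone acetyltransferases, read out as enzyme activity in %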
GCN5L2 = GCN5L2 (Homo sapiens, UniProt Q92830); assay: Histone acetyltransferase (HAT) activity assay; format: biochemical; details: read-out: HATs Activity (%);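 further: selectivity screen of BRD probe compounds across a panel of histone acetyltransferases, HAT activity in % with compound at 1 or 10 µM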
ATAD2A = target: T3, ATAD2A (Homo sapiens, UniProt Q6PL18); assay: BROMOscan ligand-binding assay
T3 sequence (Q6PL18 980-1092 limits assumed): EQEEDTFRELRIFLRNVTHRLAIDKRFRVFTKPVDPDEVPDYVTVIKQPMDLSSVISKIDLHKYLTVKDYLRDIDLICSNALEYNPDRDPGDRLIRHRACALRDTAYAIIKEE
Text: (§1) BROMOscan is a binding assay based on the well-known KINOMEscan technology. This assay measures the binding of a DNA-tagged bromodomain to an immobilized BRD ligand. If an inhibitor is present, it will compete with the bromodomain binding to the immobilized ligand, resulting in reduction of a quantitative PCR (qPCR) signal in a dose-dependent manner.

ATAD2B = target: T4, ATAD2B (Homo sapiens, UniProt Q9ULI0); assay: BROMOscan ligand-binding assay
T4 sequence (Q9ULI0 951-1066 limits assumed): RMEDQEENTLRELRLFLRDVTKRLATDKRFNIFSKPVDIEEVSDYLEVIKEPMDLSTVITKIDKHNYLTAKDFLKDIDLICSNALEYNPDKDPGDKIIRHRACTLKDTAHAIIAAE
Text: as §1

BAZ2A = target: T5, BAZ2A (Homo sapiens, UniProt Q9UIF9); assay: BROMOscan ligand-binding assay; details: BROMOscan Gene Symbol BAZ2A
T5 sequence (Q9UIF9 1793-1897 limits assumed): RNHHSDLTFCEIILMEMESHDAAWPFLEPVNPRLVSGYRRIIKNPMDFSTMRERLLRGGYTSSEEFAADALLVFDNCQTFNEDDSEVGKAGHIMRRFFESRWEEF
Text: as §1

BAZ2B = target: T6, BAZ2B (Homo sapiens, UniProt Q9UIF8); assay: BROMOscan ligand-binding assay
T6 sequence (Q9UIF8 2060-2164 limits assumed): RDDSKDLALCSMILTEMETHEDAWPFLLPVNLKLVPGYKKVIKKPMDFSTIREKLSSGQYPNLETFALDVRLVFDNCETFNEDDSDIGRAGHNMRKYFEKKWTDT
Text: as §1

BRD1 = target: T7, BRD1 (Homo sapiens, UniProt O95696); assay: BROMOscan ligand-binding assay; details: BROMOscan Gene Symbol BRD1
T7 sequence (O95696 562-666 limits assumed): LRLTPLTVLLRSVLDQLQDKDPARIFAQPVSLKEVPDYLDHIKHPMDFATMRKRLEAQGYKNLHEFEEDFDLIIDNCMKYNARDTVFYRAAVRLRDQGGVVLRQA
Text: as §1

BRD2(1) = BRD2(1) (Homo sapiens, UniProt P25440); assay: BROMOscan ligand-binding assay; details: BROMOscan Gene Symbol BRD2(1)
Text: as §1

BRD2(2) = BRD2(2) (Homo sapiens, UniProt P25440); assay: BROMOscan ligand-binding assay; details: BROMOscan Gene Symbol BRD2(2)
Text: as §1

BRD3(1) = BRD3(1) (Homo sapiens, UniProt Q15059); assay: BROMOscan ligand-binding assay; details: BROMOscan Gene Symbol BRD3(1)
Text: as §1

BRD3(2) = BRD3(2) (Homo sapiens, UniProt Q15059); assay: BROMOscan ligand-binding assay; details: BROMOscan Gene Symbol BRD3(2)
Text: as §1

BRD9 = target: T8, BRD9 (Homo sapiens, UniProt Q9H8M2); assay: BROMOscan ligand-binding assay; details: BROMOscan Gene Symbol BRD9
T8 sequence (Q9H8M2 136-240 limits assumed): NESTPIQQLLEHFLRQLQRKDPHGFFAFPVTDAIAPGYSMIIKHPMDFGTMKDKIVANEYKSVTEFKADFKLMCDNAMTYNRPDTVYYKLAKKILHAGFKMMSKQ
Text: as §1

BRDT(1) = BRDT(1) (Homo sapiens, UniProt Q58F21); assay: BROMOscan ligand-binding assay; details: BROMOscan Gene Symbol BRDT(1)
Text: as §1

BRDT(2) = BRDT(2) (Homo sapiens, UniProt Q58F21); assay: BROMOscan ligand-binding assay; details: BROMOscan Gene Symbol BRDT(2)
Text: as §1

BRPF1 = target: T9, BRPF1 (Homo sapiens, UniProt P55201); assay: BROMOscan ligand-binding assay; details: BROMOscan Gene Symbol BRPF1
T9 sequence (P55201 628-732 limits assumed): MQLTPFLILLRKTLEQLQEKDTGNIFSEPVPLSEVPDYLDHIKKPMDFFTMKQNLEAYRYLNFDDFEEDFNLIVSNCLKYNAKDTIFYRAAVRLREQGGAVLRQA
Text: as §1

BRPF3 = target: T10, BRPF3 (Homo sapiens, UniProt Q9ULD4); assay: BROMOscan ligand-binding assay
T10 sequence (Q9ULD4 589-693 limits assumed): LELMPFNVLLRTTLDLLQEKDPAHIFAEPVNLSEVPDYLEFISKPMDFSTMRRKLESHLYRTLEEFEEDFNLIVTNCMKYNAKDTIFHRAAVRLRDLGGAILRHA
Text: as §1

EP300 [2] = target: T11, EP300 (Homo sapiens, UniProt Q09472); assay: BROMOscan ligand-binding assay; details: BROMOscan Gene Symbol EP300
T11 sequence (Q09472 1049-1156 limits assumed): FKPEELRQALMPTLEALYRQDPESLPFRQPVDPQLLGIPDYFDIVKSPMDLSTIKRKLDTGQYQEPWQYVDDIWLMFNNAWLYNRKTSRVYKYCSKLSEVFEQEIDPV
Text: as §1

FALZ = FALZ (Homo sapiens, UniProt Q12830); assay: BROMOscan ligand-binding assay
Text: as §1

PBRM1(2) = PBRM1(2) (Homo sapiens, UniProt Q86U86); assay: BROMOscan ligand-binding assay; details: BROMOscan Gene Symbol PBRM1(2)
Text: as §1

TAF1(2) = target: T12, TAF1(2) (Homo sapiens, UniProt P21675); assay: BROMOscan ligand-binding assay; details: BROMOscan Gene Symbol TAF1(2)
T12 sequence (P21675 1519-1628 limits assumed): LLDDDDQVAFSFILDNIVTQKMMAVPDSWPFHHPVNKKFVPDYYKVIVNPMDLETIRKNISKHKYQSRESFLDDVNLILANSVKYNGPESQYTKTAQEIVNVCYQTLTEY
Text: as §1

TAF1L(2) = target: T13, TAF1L(2) (Homo sapiens, UniProt Q8IZX4); assay: BROMOscan ligand-binding assay; details: BROMOscan Gene Symbol TAF1L(2)
T13 sequence (Q8IZX4 1517-1626 limits assumed): T12 sequence (P21675 1519-1628 limits assumed) with V46M, M51V, V102I, L107I
Text: as §1

TRIM24(PHD,BRD) = target: T14, TRIM24(PHD,BRD) (Homo sapiens, UniProt O15164); assay: BROMOscan ligand-binding assay; details: BROMOscan Gene Symbol TRIM24(PHD,Bromo.)
T14 sequence (O15164 824-1006 limits assumed): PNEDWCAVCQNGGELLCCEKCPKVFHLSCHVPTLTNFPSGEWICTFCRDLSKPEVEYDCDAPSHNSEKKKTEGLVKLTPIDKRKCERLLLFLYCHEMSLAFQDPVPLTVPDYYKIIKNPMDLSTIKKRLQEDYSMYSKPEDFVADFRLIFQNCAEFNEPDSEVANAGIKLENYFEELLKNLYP
Text: as §1

TRIM33(PHD,BRD) = target: T15, TRIM33(PHD,BRD) (Homo sapiens, UniProt Q9UPN9); assay: BROMOscan ligand-binding assay
T15 sequence (Q9UPN9 882-1087 limits assumed): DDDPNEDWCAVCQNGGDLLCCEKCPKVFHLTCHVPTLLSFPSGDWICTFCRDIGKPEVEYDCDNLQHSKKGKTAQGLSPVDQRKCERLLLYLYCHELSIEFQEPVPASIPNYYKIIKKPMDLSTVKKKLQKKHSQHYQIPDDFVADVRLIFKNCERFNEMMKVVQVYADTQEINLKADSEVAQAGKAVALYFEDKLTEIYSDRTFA
Text: as §1

WDR9(2) = WDR9(2) (Homo sapiens, UniProt Q9NSI6); assay: BROMOscan ligand-binding assay; details: BROMOscan Gene Symbol WDR9(2)
Text: as §1

[3] = read-out: KD (BROMOscan), sheet prints no unit (nM)

Sequence of GCN5L2 (Q92830 whole entry, species assumed): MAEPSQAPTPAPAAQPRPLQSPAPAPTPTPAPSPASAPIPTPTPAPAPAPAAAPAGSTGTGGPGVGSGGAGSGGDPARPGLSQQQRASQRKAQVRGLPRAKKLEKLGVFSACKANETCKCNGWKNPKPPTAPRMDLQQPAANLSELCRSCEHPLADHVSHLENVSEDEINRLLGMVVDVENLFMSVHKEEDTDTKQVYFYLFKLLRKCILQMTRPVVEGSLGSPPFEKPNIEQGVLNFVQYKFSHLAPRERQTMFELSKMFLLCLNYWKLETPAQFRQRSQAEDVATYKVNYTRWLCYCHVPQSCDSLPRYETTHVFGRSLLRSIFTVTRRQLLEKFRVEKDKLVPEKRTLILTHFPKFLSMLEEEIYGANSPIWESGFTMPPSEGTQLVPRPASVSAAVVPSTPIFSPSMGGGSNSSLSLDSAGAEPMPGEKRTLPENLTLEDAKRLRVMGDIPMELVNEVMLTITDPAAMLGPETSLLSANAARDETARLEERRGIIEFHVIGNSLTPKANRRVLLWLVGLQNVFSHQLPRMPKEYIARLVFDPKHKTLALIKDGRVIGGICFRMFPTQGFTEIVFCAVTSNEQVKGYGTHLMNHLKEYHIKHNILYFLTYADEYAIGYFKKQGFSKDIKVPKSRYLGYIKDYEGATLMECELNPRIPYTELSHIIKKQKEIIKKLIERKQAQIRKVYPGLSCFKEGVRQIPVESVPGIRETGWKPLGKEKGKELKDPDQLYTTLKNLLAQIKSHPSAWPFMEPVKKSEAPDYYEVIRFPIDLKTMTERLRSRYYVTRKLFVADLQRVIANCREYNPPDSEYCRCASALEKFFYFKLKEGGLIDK
Sequence of WDR9(2) (Q9NSI6 1313-1418 limits assumed): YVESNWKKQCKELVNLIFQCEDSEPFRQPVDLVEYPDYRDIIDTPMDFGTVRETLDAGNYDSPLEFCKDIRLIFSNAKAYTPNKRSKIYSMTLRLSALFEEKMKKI
Sequence of BRD2(1) (P25440 74-180 limits assumed): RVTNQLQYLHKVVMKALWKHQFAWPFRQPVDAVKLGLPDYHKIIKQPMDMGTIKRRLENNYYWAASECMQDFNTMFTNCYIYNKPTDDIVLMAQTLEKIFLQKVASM
Sequence of BRD2(2) (P25440 344-453 limits assumed): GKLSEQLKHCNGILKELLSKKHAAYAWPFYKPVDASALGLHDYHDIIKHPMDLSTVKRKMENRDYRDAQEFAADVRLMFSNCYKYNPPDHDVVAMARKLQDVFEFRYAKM
Sequence of PBRM1(2) (Q86U86 177-287 limits assumed): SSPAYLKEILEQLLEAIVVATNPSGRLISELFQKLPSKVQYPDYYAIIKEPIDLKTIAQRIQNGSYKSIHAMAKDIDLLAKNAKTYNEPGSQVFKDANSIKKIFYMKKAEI
Sequence of BRD3(2) (Q15059 306-415 limits assumed): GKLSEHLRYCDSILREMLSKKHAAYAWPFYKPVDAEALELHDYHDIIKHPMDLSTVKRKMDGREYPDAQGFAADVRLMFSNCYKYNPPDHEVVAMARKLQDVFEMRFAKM
Sequence of BRD3(1) (Q15059 34-140 limits assumed): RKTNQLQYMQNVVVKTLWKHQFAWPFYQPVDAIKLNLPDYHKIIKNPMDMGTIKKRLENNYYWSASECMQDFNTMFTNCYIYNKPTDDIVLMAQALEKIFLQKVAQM

activity at 1 µM (EP300 [1]): 99% | activity at 10 µM (EP300 [1]): 94% | activity at 1 µM (HAT1): 99% | activity at 10 µM (HAT1): 96% | activity at 1 µM (MYST1): 106% | activity at 10 µM (MYST1): 101% | activity at 1 µM (MYST3): 99% | activity at 10 µM (MYST3): 100% | activity at 1 µM (GCN5L2): 102% | activity at 10 µM (GCN5L2): 100%
SMILES: COc1cc(-c2cn(C)c(=O)c3cnccc23)c(OC)cc1CN(C)C [BI-9564]

Kd (ATAD2A; BROMOscan Gene Symbol ATAD2A): > 150000 nM | Kd (ATAD2A; [3]): > 30000 nM | Kd (ATAD2B; BROMOscan Gene Symbol ATAD2B): > 50000 nM | Kd (ATAD2B; [3]): > 30000 nM | Kd (BAZ2A): 75 µM | Kd (BAZ2B; BROMOscan Gene Symbol BAZ2B): > 50000 nM | Kd (BAZ2B; [3]): > 30000 nM | Kd (BRD1): 47 µM | Kd (BRD2(1)): 1.5 µM | Kd (BRD2(2)): 3.6 µM | Kd (BRD3(1)): 1.4 µM | Kd (BRD3(2)): 4.6 µM | Kd (BRD9): 10 µM | Kd (BRDT(1)): 3.6 µM | Kd (BRDT(2)): 18 µM | Kd (BRPF1): 11 µM | Kd (BRPF3; BROMOscan Gene Symbol BRPF3): > 50000 nM | Kd (BRPF3; [3]): > 30000 nM | Kd (EP300 [2]): 0.044 µM | Kd (FALZ; BROMOscan Gene Symbol FALZ): > 50000 nM | Kd (FALZ; [3]): > 30000 nM | Kd (PBRM1(2)): 44 µM | Kd (TAF1(2)): 1.6 µM | Kd (TAF1L(2)): 14 µM | Kd (TRIM24(PHD,BRD)): 26 µM | Kd (TRIM33(PHD,BRD); BROMOscan Gene Symbol TRIM33(PHD,Bromo.)): > 50000 nM | Kd (TRIM33(PHD,BRD); [3]): > 30000 nM | Kd (WDR9(2)): 41 µM
SMILES: COc1ccc(CCc2nc3cc(-c4c(C)noc4C)ccc3n2CCN2CCOCC2)cc1 [CBP30-383]

activity at 1 µM (EP300 [1]): 95% | activity at 10 µM (EP300 [1]): 96% | activity at 1 µM (HAT1): 98% | activity at 10 µM (HAT1): 97% | activity at 1 µM (MYST1): 100% | activity at 10 µM (MYST1): 103% | activity at 1 µM (MYST3): 99% | activity at 10 µM (MYST3): 98% | activity at 1 µM (GCN5L2): 94% | activity at 10 µM (GCN5L2): 92%
SMILES: CC(=O)c1cc(-c2cc(C(=O)NC3CC3)ccc2C)c2ncccn12 [TP-472]
